ChEMBL document CHEMBL1629561, “Inhibition of Bacillus anthracis spore outgrowth by nisin” (Antimicrob Agents Chemother, 2008)
The source made the active and inactive calls. The calls are words filed in the database; no cut-off is given here.

Key:
[1] = test system: Bacillus anthracis; assay: Antibacterial activity against Bacillus anthracis spores assessed as reduction in membrane potential at 10 uM after 5 hrs by flow cytometry; type: functional, organism-based
[2] = test system: Bacillus anthracis; assay: Antibacterial activity against Bacillus anthracis spores assessed as loss of membrane integrity at 0.1 uM by flow cytometry relative to control; type: functional, organism-based
[3] = test system: Bacillus anthracis; assay: Antibacterial activity against Bacillus anthracis spores assessed as inhibition of spore germination at 10 uM preincubated for 5 mins with germinating medium measured after 18 hrs; type: functional, organism-based
[4] = test system: Bacillus anthracis; assay: Antibacterial activity against Bacillus anthracis spores assessed as inhibition of growth of replicating vegetative bacteria at 100 uM; type: functional, organism-based
[5] = test system: Bacillus anthracis; assay: Antibacterial activity against Bacillus anthracis assessed as effect on hydration of spore structure-associated loss in refractility after 10 min by spectroscopy; type: functional
[6] = test system: Bacillus anthracis; assay: Antibacterial activity against Bacillus anthracis spores assessed as reduction in membrane potential at 0.1 uM after 10 hrs by flow cytometry; type: functional, organism-based
[7] = test system: Bacillus anthracis; assay: Antibacterial activity against Bacillus anthracis spores assessed as reduction in membrane potential at 0.1 uM after 5 hrs by flow cytometry; type: functional, organism-based
[8] = test system: Bacillus anthracis; assay: Antibacterial activity against Bacillus anthracis spores assessed as loss of exosporium by transmission electron microscopy; type: functional, organism-based
[9] = test system: Bacillus anthracis; assay: Antibacterial activity against Bacillus anthracis assessed as effect on spore germination initiation after 5 mins by spectroscopy in presence of 0.1 M MOPS nongerminating condition; type: functional, organism-based
[10] = test system: Bacillus anthracis; assay: Antibacterial activity against Bacillus anthracis spores assessed as loss of spore cortex by transmission electron microscopy; type: functional, organism-based
[11] = test system: Bacillus anthracis; assay: Antibacterial activity against Bacillus anthracis assessed as effect on germination initiation-associated loss in spore heat resistance after 5 mins by spectroscopy; type: functional
[12] = test system: Bacillus anthracis; assay: Antibacterial activity against Bacillus anthracis spores assessed as reduction in membrane potential at 1 uM after 5 hrs by flow cytometry; type: functional, organism-based
[13] = test system: Bacillus anthracis; assay: Antibacterial activity against Bacillus anthracis spores assessed as loss of membrane integrity at 10 uM by flow cytometry relative to control; type: functional, organism-based
[14] = test system: Bacillus anthracis; assay: Antibacterial activity against Bacillus anthracis spores assessed as inhibition of growth of replicating vegetative bacteria at 10 uM; type: functional, organism-based
[15] = test system: Bacillus anthracis; assay: Antibacterial activity against Bacillus anthracis spores assessed as reduction in membrane potential at 1 uM after 10 hrs by flow cytometry; type: functional, organism-based
[16] = test system: Bacillus anthracis; assay: Antibacterial activity against Bacillus anthracis spores assessed as reduction in membrane potential at 100 uM after 10 hrs by flow cytometry; type: functional, organism-based
[17] = test system: Bacillus anthracis; assay: Antibacterial activity against Bacillus anthracis spores assessed as reduction in membrane potential at 10 uM after 10 hrs by flow cytometry; type: functional, organism-based
[18] = test system: Bacillus anthracis; assay: Antibacterial activity against Bacillus anthracis spores assessed as inhibition of growth of replicating vegetative bacteria at 0.1 uM after 50 minutes; type: functional, organism-based
[19] = test system: Bacillus anthracis; assay: Antibacterial activity against Bacillus anthracis spores assessed as loss of membrane integrity at 1 uM by flow cytometry relative to control; type: functional, organism-based
[20] = test system: Bacillus anthracis; assay: Antibacterial activity against Bacillus anthracis spores assessed as loss of membrane integrity at 100 uM by flow cytometry relative to control; type: functional, organism-based
[21] = test system: Bacillus anthracis; assay: Antibacterial activity against Bacillus anthracis spores assessed as decrease in spore germination initiation at 10 uM preincubated with germination medium measured after 18 hrs; type: functional, organism-based
[22] = test system: Bacillus anthracis; assay: Antibacterial activity against Bacillus anthracis spores assessed as reduction in membrane potential at 100 uM after 5 hrs by flow cytometry; type: functional, organism-based
[23] = test system: Bacillus anthracis; assay: Antibacterial activity against Bacillus anthracis spores assessed as loss of spore coat by transmission electron microscopy; type: functional, organism-based
[24] = test system: Bacillus anthracis; assay: Antibacterial activity against Bacillus anthracis spores assessed as inhibition of growth of replicating vegetative bacteria at 1 uM; type: functional, organism-based
[25] = test system: Bacillus anthracis; assay: Antibacterial activity against Bacillus anthracis spores assessed as reduction in membrane potential at 0.1 uM; type: functional, organism-based
[26] = test system: Bacillus anthracis; assay: Antibacterial activity against Bacillus anthracis spores assessed as loss of membrane integrity at 0.01 uM by flow cytometry relative to control; type: functional, organism-based
[27] = test system: Bacillus anthracis; assay: Antibacterial activity against Bacillus anthracis spores assessed as reduction in membrane potential at 0.01 uM; type: functional, organism-based
[28] = test system: Bacillus anthracis; assay: Antibacterial activity against Bacillus anthracis spores assessed as inhibition of growth of replicating vegetative bacteria at 1 uM after 5 hrs; type: functional, organism-based
[29] = test system: Bacillus anthracis; assay: Antibacterial activity against Bacillus anthracis spores assessed as reduction in membrane potential at 1 uM; type: functional, organism-based
[30] = test system: Bacillus anthracis; assay: Antibacterial activity against Bacillus anthracis spores assessed as reduction in membrane potential at 10 uM; type: functional, organism-based

C=C(NC(=O)[C@@H](NC(=O)[C@H](Cc1cnc[nH]1)NC(=O)[C@@H](NC(=O)[C@H](CO)NC(=O)[C@@H]1CS[C@@H](C)[C@H]2NC(=O)C(=C)NC(=O)[C@H](NC(=O)[C@H](CCCCN)NC(=O)[C@H](CCSC)NC(=O)[C@H](CC(N)=O)NC(=O)[C@@H]3CS[C@@H](C)[C@@H](NC(=O)[C@H](CCCNN)NC(=O)[C@@H]4CS[C@@H](C)[C@@H](NC(=O)[C@@H]5CSC[C@@H](NC(=O)/C(=C\C)NC(=O)[C@@H](N)[C@@H](C)CC)C(=O)N[C@@H]([C@@H](C)CC)C(=O)NC(=C)C(=O)N[C@@H]([C@@H](C)CC)C(=O)N5)C(=O)N5CCC[C@H]5C(=O)NCC(=O)N4)C(=O)NCC(=O)N[C@@H](C)C(=O)N[C@@H]([C@@H](C)CC)C(=O)N[C@@H](CCSC)C(=O)NCC(=O)N3)[C@H](C)SC[C@H](NC2=O)C(=O)N[C@H](Cc2cnc[nH]2)C(=O)N1)[C@@H](C)CC)C(C)C)C(=O)N[C@@H](CCCCN)C(=O)O [NISIN]
Activity [1]: Active | Activity [2]: Active | inhibition [3]: Active | growth inhibition (GI) [4]: Active | Activity [5]: >65% | inhibition [6]: inactive | inhibition [7]: inactive | Activity [8]: inactive | Activity [9]: inactive | Activity [10]: inactive | Activity [11]: >80% | Activity [12]: Active | Activity [13]: Active | growth inhibition (GI) [14]: Active | Activity [15]: Active | Activity [16]: Active | Activity [17]: Active | growth inhibition (GI) [18]: Active | Activity [19]: Active | Activity [20]: Active | inhibition [21]: Active | Activity [22]: Active | Activity [23]: inactive | growth inhibition (GI) [24]: Active

O=C(O)c1cn(C2CC2)c2cc(N3CCNCC3)c(F)cc2c1=O
Activity [2]: Active | Activity [25]: inactive | Activity [26]: Active | Activity [27]: inactive | inhibition [28]: inactive | Activity [29]: inactive | Activity [13]: Active | Activity [19]: Active | Activity [30]: inactive
